Legend:
[1] = system: glutamate- and avermectin-sensitive chloride channel (C. elegans poly(A)+ RNA); assay: Current in Xenopus oocytes injected with C. elegans poly(A)+ RNA; assay type: cell-based; settings: for type of drug-sensitive current: poly(A)+ RNA injected oocytes
Description: (§1) Xenopus laevis oocytes were prepared and injected using standard methods previously described and known in the art [Arena, J. P., Liu. K. K., Paress, P. S. & Cully. D. F. Mol. Pharmacol. 40, 368-374 (1991 ); Arena, J. P., Liu, K. K., Paress, P. S., Schaeffer, J. M. & Cully, D. F. Mol. Brain Res. 15, 339-348 (1992)]. Adult female Xenopus laevis were anesthetized with 0.17% tricaine methanesulfonate and the ovaries were surgically removed and placed in a dish consisting of (mM): NaCl 1 82.5, KCl 2. MgCl2 1, CaCl2 1.8, HEPES 5 adjusted to pH 7.5 with NaOH (OR-2). Ovarian lobes were broken open, rinsed several times, and gently shaken in OR-2 containing 0.2% collagenase (Sigma, Type 1A) for 2-5 hours. When approximately 50% of the follicular layers were removed, Stage V and VI oocytes were selected and placed in media consisting of (mM): NaCl 86, KCl 2, MgCl2 1, CaCl2 1.8, HEPES 5, Na pyruvate 2.5, theophylline 0.5, gentamicin 0.1 adjusted to pH 7.5 with NaOH (ND-96) for 24-48 hours before injection. Oocytes were injected with 50-70 nl of poly(A^+) RNA (1 mg/ml) or 50 nl of GluClα (0.1-100 ng) and/or GluClβ (0.1-100 ng). Control oocytes were injected with 50 nl of water. Oocytes were incubated for 2-10 days in ND-96 before recording. Incubations and collagenase digestion were carried out at 18° C.
(§2) Recordings were made at room temperature 2-10 days after injection. Unless otherwise indicated recordings were made in standard frog saline consisting of (mM): NaCl 115, KCl 2, MgCl2 1, CaCl2 1.8, HEPES 10 adjusted to pH 7.5 with NaOH. […] Data were acquired and analyzed using PCLAMP with a TL-1 interface (Axon Instruments, Foster City, Calif.). Membrane current at a holding potential of -80 mV was recorded. The amplitude of drug-sensitive current was determined by subtracting the holding current at -80 mV from the peak current obtained in the presence of drug. […] Current/voltage relationships (I/V) and reversal potentials (Erev) were determined using a 1-3 sec voltage ramp over the voltage range of -110 to +80 mV. […]

GluClα [2] = molecular target: T1, GluClα (Caenorhabditis elegans, UniProt G5EBR3); assay: Activation of current in Xenopus oocytes expressing homomeric GluClα (voltage clamp); assay type: cell-based, C. elegans; parameters: the full-length open reading frame of the GluCl cDNA encoding the GluClα (52,550 kDa) and GluClβ (49,900kDa) subunits; expressed in transfected cells; host or cells: Xenopus laevis oocytes injected with in vitro RNA
T1 sequence (G5EBR3 21-461): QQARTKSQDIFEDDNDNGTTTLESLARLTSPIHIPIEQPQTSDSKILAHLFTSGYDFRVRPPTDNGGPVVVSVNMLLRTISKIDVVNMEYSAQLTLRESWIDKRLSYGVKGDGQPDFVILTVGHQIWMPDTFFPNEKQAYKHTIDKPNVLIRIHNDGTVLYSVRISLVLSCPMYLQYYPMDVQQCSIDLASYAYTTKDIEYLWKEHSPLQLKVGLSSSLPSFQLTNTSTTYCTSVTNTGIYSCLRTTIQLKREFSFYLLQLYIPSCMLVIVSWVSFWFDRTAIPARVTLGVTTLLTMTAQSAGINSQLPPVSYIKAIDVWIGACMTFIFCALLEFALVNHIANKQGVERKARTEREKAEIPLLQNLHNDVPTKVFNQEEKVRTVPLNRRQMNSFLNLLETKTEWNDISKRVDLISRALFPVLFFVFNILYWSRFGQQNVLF
Description: as §1
Recordings were made at room temperature 2-10 days after injection. Unless otherwise indicated recordings were made in standard frog saline consisting of (mM): NaCl 115, KCl 2, MgCl2 1, CaCl2 1.8, HEPES 10 adjusted to pH 7.5 with NaOH. Oocytes were voltage-clamped using a standard two microelectrode amplifier (Dagan 8500 or TEV-200, Minneapolis,Minn.). Pipettes were filled with 3M KCl and had resistances between 0.5-3.0 M.OMEGA.. A plexiglass recording chamber (volume 200 μl) was constantly perfused at a rate of 10 ml/min. The recording chamber was connected to ground with a Ag/AgCl electrode directly, or through a 3M KCl agar bridge when extracellular chloride was varied. For low chloride solutions NaCl was replaced with equimolar concentrations of sodium isethionic acid. For low sodium solutions NaCl was replaced with equimolar KCl or choline Cl. Data were acquired and analyzed using PCLAMP with a TL-1 interface (Axon Instruments, Foster City, Calif.). Membrane current at a holding potential of -80 mV was recorded. The amplitude of drug-sensitive current was determined by subtracting the holding current at -80 mV from the peak current obtained in the presence of drug. Data were filtered at 30 Hz and sampled at 16.6 Hz. Current/voltage relationships (I/V) and reversal potentials (Erev) were determined using a 1-3 sec voltage ramp over the voltage range of -110 to +80 mV. For the ramps, data were filtered at 0.3-3 kHz and sampled at 160 Hz. Current in drug free solution was subtracted from current in the presence of drug to obtain drug-sensitive current/voltage relationships.
Electrophysiological properties were examined in oocytes injected with in vitro RNA from pGluClα and pGluClβ (FIG. 5).

GluClα [3] = molecular target: T1, GluClα; assay: Glutamate current after IVMPO4 current activation, GluClα injected oocytes; assay type: cell-based, C. elegans; parameters: the full-length open reading frame of the GluCl cDNA encoding the GluClα (52,550 kDa) and GluClβ (49,900kDa) subunits; expressed in transfected cells; host or cells: Xenopus laevis oocytes injected with in vitro RNA
Description: Xenopus laevis oocytes were prepared and injected using standard methods previously described and known in the art [Arena, J. P., Liu. K. K., Paress, P. S. & Cully. D. F. Mol. Pharmacol. 40, 368-374 (1991 ); Arena, J. P., Liu, K. K., Paress, P. S., Schaeffer, J. M. & Cully, D. F. Mol. Brain Res. 15, 339-348 (1992)]. Adult female Xenopus laevis were anesthetized with 0.17% tricaine methanesulfonate and the ovaries were surgically removed and placed in a dish consisting of (mM): NaCl 1 82.5, KCl 2. MgCl2 1, CaCl2 1.8, HEPES 5 adjusted to pH 7.5 with NaOH (OR-2). Ovarian lobes were broken open, rinsed several times, and gently shaken in OR-2 containing 0.2% collagenase (Sigma, Type 1A) for 2-5 hours. […]
as §2, with “injection.” for “injection. Unless otherwise indicated recordings were made in standard frog saline consisting of (mM): NaCl 115, KCl 2, MgCl2 1, CaCl2 1.8, HEPES 10 adjusted to pH 7.5 with NaOH.”

Compound | type of drug-sensitive current [1] | response of homomeric GluClα channels (GluClα [2]) | sensitivity of GluClα channels to glutamate (GluClα [2]; glutamate concentrations as high as 10 mM) | lowest glutamate concentrations at which glutamate-sensitive current could be observed (GluClα [3]; following IVMPO4 current activation) | increase in current with glutamate (GluClα [3]; prior activation of current with IVMPO4) | time for maximal activation of IVMPO4-sensitive current ([1]; poly(A)+ RNA) | Hill coefficient (IVMPO4) (GluClα [2]; GluClα) | EC50 (GluClα [2]; GluClα, read-out: EC50 for IVMPO4 activation of current) | voltage dependence of current (GluClα [2]; I/V, GluClα) | time course for IVMPO4 activation (GluClα [2]; homomeric GluClα)
N[C@@H](CCC(=O)O)C(=O)O [glutamate] | rapidly activating reversible | do not respond | insensitive | 10 µM | 20±4% |  |  |  |  | 
ivermectin-4-O-phosphate [IVMPO4] | irreversible | selectively responsive |  |  |  | 36 ± 3 s | 1.5 | 140 nM | essentially a linear voltage dependence | 18 ± 1 s

— patent US5527703A (Merck & Co., Inc., priority 1994, dated 1996)
